Source: US5561042A, “Diamine platinum naphthalimide complexes as antitumor agents” (Cancer Therapy and Research Center, priority 1995, dated 1996)
Entries after “also recorded” stand apart in the source; their conditions may differ.

System: SV40 DNA (Form I, negatively supercoiled)
Assay: SV40 DNA unwinding / mobility by agarose gel electrophoresis
Assay type: binding
Conditions: for effect on SV40 DNA conformation (in words): agarose gel electrophoresis, 37° C.
Source text: The model used in this study, negatively supercoiled, closed circular, plasmid SV40 DNA (Form I), undergoes several stages of drug-induced unwinding that are monitored by agarose electrophoresis.
Central to the understanding of compound 21 action was the ability to assess whether the drug was bound irreversibly (presumably covalently) or reversibly. The system used to extract the reversibly bound drug went through several phases of development. The classic phenol/chloroform mixture cannot completely extract all of the drug. However, the phenol/chloroform mixture effectively extracts the drug in the presence of at least 0.1M NaCl.
Three different systems, A, B and D were used to probe the mode of interaction of compound 21 with DNA.
System A: Compound 21 and DNA in TE buffer (10 mM Tris-HCl, pH 7.5 and 1 mM EDTA) without phenol/chloroform.
System B: Compound 21 and DNA in TE buffer with 0.5M NaCl without phenol/chloroform extraction.
System D: Compound 21 and DNA in TE buffer with 0.5M NaCl followed by phenol/chloroform extraction.
In general, SV40 DNA (90% Form I, negatively supercoiled, and 10% Form II, nicked, Gibco BRL) was incubated with graded concentrations of compound 21 at 37° C. for the indicated time periods in the appropriate system. The isolated DNA was then separated by agarose gel electrophoresis (1% Seakem agarose in 1× TAE buffer) in TAE buffer with 80 volts for 2 hours. Gels were stained with ethidium bromide (0.5 μg/ml) for 15 minutes, washed and then recorded with polaroid film while being irradiated with a UV transilluminator (λ=254 nm).

## 8-(3'-nitro-1',8'-naphthalimide)-3,6-diazaoctylamine dichloroplatinum(II) [Compound 21]
  effect on SV40 DNA conformation (in words): potent distortion of DNA conformation; also recorded: gradually converts the negatively supercoiled SV40 DNA (Form I) to relaxed Form I
Listed as compound 21
  effect on SV40 DNA conformation (in words): observed instantly; also recorded: without incubation, the effect of compound 21 on DNA can be completely reversed using System D; also recorded: more of the mobility shift is retained, with an actual increase in drug effect at the full 8 hours; also recorded: no change in DNA mobility shift is observed even under system D at 8 hours; also recorded: can be returned to normal mobility after treatment with thiourea; also recorded: reversal of compound 21 on SV40 DNA by removal of compound 21 with phenol/chloroform extraction in 0.5M NaCl; also recorded: no change in mobility after phenol/chloroform, 0.5M NaCl extraction
From time zero to 8 hours
  decrease of the concentration at which form I and II comigrate: 2 fold
Time course studies
  time to plateau of irreversible effect on DNA conformation: 6 to 8 h
